Source: PubChem BioAssay (NCI)
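Cultured in 96-well plates, cells were exposed to test compound for 48 hours across five concentrations. Definition used: TGI = concentration required for complete inhibition of growth.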

How the values were obtained:
Assay in all cases: NCI-60 cell line screen, 48 h
[1] = test system: OVCAR-8 ovarian
[2] = test system: T-47D breast
[3] = test system: HOP-62 NSCLC
[4] = test system: MDA-MB-231 breast
[5] = test system: SF-295 CNS
[6] = test system: LOX IMVI melanoma
[7] = test system: M14 melanoma
[8] = test system: HT29 colon
[9] = test system: SF-268 CNS
[10] = test system: HCT-116 colon
[11] = test system: KM12 colon
[12] = test system: NCI/ADR-RES ovarian
[13] = test system: SN12C renal
[14] = test system: SW-620 colon
[15] = test system: CAKI-1 renal
[16] = test system: HCT-15 colon
[17] = test system: DU-145 prostate
[18] = test system: UO-31 renal
[19] = test system: OVCAR-5 ovarian
[20] = test system: K-562 leukemia
[21] = test system: UACC-62 melanoma
[22] = test system: RXF 393 renal
[23] = test system: SNB-19 CNS
[24] = test system: BT-549 breast
[25] = test system: SK-MEL-5 melanoma
[26] = test system: MCF7 breast
[27] = test system: IGROV1 ovarian
[28] = test system: SF-539 CNS
[29] = test system: MOLT-4 leukemia
[30] = test system: SK-OV-3 ovarian
[31] = test system: SR leukemia
[32] = test system: U251 CNS
[33] = test system: A498 renal
[34] = test system: NCI-H522 lung
[35] = test system: SK-MEL-28 melanoma
[36] = test system: ACHN renal
[37] = test system: MDA-N
[38] = test system: TK-10 renal
[39] = test system: NCI-H23 lung
[40] = test system: HL-60(TB) leukemia
[41] = test system: PC-3 prostate
[42] = test system: UACC-257 melanoma
[43] = test system: MDA-MB-435
[44] = test system: HCC-2998 colon
[45] = test system: COLO 205 colon
[46] = test system: MALME-3M melanoma
[47] = test system: HS 578T breast
[48] = test system: CCRF-CEM leukemia
[49] = test system: RPMI-8226 leukemia
[50] = test system: A549 NSCLC
[51] = test system: EKVX NSCLC
[52] = test system: 786-0 renal
[53] = test system: NCI-H226 lung
[54] = test system: HOP-92 NSCLC
[55] = test system: SNB-75 CNS
[56] = test system: SK-MEL-2 melanoma
[57] = test system: OVCAR-3 ovarian
[58] = test system: OVCAR-4 ovarian
[59] = test system: NCI-H460 lung

Measured: TGI

N#CCc1c(F)c(F)c(F)c(F)c1F
not listed: [54] | [55] | [56] | [57] | [58] | [59]
> 100 µM: all other assays above

COC(=O)c1cc(-c2ccc3ccccc3c2)[nH]c(=O)c1C#N
38.7 µM: [40]
not listed: [20] | [29] | [48]
> 100 µM: all other assays above
